# Reference: patent US20190038597A1, “PREVENTION OF VASCULAR AND CARDIAC FIBROSIS VIA IRE1ALPHA INHIBITION” (McMaster University, priority 2017, published 2019)
# Assays:
# IRE1α endonuclease = biological target: T1, IRE1α endonuclease (Rattus norvegicus, UniProt A0A4Y1YQ52); experiment: XBP1 splicing assay in VSMCs; assay type: cell-based; details: tunicamycin (1 μg/ml) 6 h, 4μ8c 30 μM or STF-083010 60 μM, FIG. 1A
# T1 construct: endogenous in cells; host or cells: primary aortic vascular smooth muscle cells from 5-week old WKY rats
# Procedure: (§1) VSMCs were treated with tunicamycin (1 μg/ml) and either 4μ8c (30 μM) or STF-083010 (60 μM) for 6 h or 24 h. (A) Agarose gel for assessment of XBP1 splicing after 6 h of treatment with tunicamycin and densitometric quantification. (B) Western blot for assessment of ER chaperone expression after 24 h tunicamycin treatment with or without inhibition of IRE1α by 4μ8c. Data is presented as mean±SEM. *, p<0.05 vs. Vehicle; #, p<0.05 vs. Tm.
# (§2) VSMCs were cultured in DMEM/F12 containing 1% FBS. Confluent cells were treated with L-ascorbic acid-2-phosphate (100 μg/ml) and either TGF-β1 (5 ng/ml) or Ang II (1 μM). (A) Agarose gel for assessment of TGF-β1-induced XBP1 splicing in VSMCs after 24 h. (B) Picro-Sirius Red assay for measurement of collagen deposition induced by combined TGF-β1 and AA2P treatment after 72 h, and inhibition by 4μ8c and STF-083010. (C) Western blot for assessment of collagen chaperone expression after treatment of TGF-β1 and 4μ8c for 48 h. *, p<0.05. (D) Measurement of Ang II-induced collagen production and inhibition by 4μ8c and STF-083010 after 72 h.
# VSMCs were isolated from the aortas of 5-week old WKY rats using the explant method^29. The thoracic aorta was removed from the animal and placed in ice-cold 5× Antibiotics-Antimycotics solution (ThermoFisher). The adventitia was gently removed and the aorta was cut longitudinally. The endothelial layer was removed by gentle scraping with forceps. […]
# Total RNA was extracted from cultured cells and rat tissues using the TRIzol reagent (ThermoFisher) according to manufacturer's instructions. RNA concentration and purity were measured using a Nanodrop ND-1000 spectrophotometer (NanoDrop Technologies, Inc.). […]
# Aortic VSMCs were isolated from normotensive WKY rats and used for in vitro experiments. […] To test the ability of these compounds to block the IRE1α endonuclease, XBP1 splicing was measured in VSMCs treated with the ER stress inducer tunicamycin for 6 h with or without pre-treatment by 4μ8c or STF-083010. […]
# VSMCs = experiment: Picro-Sirius Red assay of collagen synthesis in VSMCs; assay type: cell-based, rat
# Procedure: as §2
# VSMCs were isolated from the aortas of 5-week old WKY rats using the explant method^29. The thoracic aorta was removed from the animal and placed in ice-cold 5× Antibiotics-Antimycotics solution (ThermoFisher). The adventitia was gently removed and the aorta was cut longitudinally. The endothelial layer was removed by gentle scraping with forceps. The aorta was cut into 3 mm^2 squares and placed on a 6 well plate in DMEM/F12 medium containing 10% fetal bovine serum (FBS). Explants were incubated undisturbed in a 5% CO2 incubator at 37° C. for 1 week and then passaged. Sprague-Dawley renal fibroblasts were purchased (Cell Biologics) and cultured in low glucose DMEM/F12 medium containing 10% FBS, streptomycin (100 μgimp, and penicillin (100 U/ml, Invitrogen, Burlington, ON). Cells between passages 5 and 10 were used for experiments. Cells were cultured in medium containing 1% FBS overnight before treatment.
# Collagen synthesis was measured using a Picro-Sirius Red-based assay as previously described^30. Briefly, cells cultured on a 96 well plate were fixed in methanol for 10 minutes at −20° C. Cells were washed once with PBS and incubated with Picrosirius Red stain (0.1% Direct Red 80 in saturated picric acid) for 1 h at room temperature. After the staining solution was removed, the cells were washed three times with 0.1% acetic acid and then imaged. The dye was then eluted with 0.1 N NaOH for 10 minutes on a rocking platform. Absorbance at 540 nm was measured using a Spectramax Plus Microplate Reader (Molecular Devices).
# Cells were co-treated with either 4μ8c or S′TF-083010 to inhibit IRE1α endonuclease activity. TGF-β1 induced XBP1 splicing after 24 h, which was blocked by co-treatment with 4μ8c (FIG. 2A). Collagen production was measured using a Picro-Sirius Red-based colorimetric assay. TGF-β1 combined with AA2P induced collagen synthesis in the VSMCs, which was inhibited by co-treatment with 4μ8c or STF-083010 (FIG. 2B).
# GRP78, GRP94 and PDI = experiment: Western blot of ER chaperone / ER stress marker expression in VSMCs; assay type: cell-based, rat; details: 24 h tunicamycin treatment, FIG. 1B
# Procedure: as §1, §2
# VSMCs were isolated from the aortas of 5-week old WKY rats using the explant method^29. The thoracic aorta was removed from the animal and placed in ice-cold 5× Antibiotics-Antimycotics solution (ThermoFisher). The adventitia was gently removed and the aorta was cut longitudinally. The endothelial layer was removed by gentle scraping with forceps. The aorta was cut into 3 mm^2 squares and placed on a 6 well plate in DMEM/F12 medium containing 10% fetal bovine serum (FBS). Explants were incubated undisturbed in a 5% CO2 incubator at 37° C. for 1 week and then passaged. […]
# Cells were lysed in 1× Laemmli buffer and protein content was quantified using the BioRad DC Protein Assay (BioRad, Mississauga, Canada). […]
# T1 sequence (A0A4Y1YQ52 21-977): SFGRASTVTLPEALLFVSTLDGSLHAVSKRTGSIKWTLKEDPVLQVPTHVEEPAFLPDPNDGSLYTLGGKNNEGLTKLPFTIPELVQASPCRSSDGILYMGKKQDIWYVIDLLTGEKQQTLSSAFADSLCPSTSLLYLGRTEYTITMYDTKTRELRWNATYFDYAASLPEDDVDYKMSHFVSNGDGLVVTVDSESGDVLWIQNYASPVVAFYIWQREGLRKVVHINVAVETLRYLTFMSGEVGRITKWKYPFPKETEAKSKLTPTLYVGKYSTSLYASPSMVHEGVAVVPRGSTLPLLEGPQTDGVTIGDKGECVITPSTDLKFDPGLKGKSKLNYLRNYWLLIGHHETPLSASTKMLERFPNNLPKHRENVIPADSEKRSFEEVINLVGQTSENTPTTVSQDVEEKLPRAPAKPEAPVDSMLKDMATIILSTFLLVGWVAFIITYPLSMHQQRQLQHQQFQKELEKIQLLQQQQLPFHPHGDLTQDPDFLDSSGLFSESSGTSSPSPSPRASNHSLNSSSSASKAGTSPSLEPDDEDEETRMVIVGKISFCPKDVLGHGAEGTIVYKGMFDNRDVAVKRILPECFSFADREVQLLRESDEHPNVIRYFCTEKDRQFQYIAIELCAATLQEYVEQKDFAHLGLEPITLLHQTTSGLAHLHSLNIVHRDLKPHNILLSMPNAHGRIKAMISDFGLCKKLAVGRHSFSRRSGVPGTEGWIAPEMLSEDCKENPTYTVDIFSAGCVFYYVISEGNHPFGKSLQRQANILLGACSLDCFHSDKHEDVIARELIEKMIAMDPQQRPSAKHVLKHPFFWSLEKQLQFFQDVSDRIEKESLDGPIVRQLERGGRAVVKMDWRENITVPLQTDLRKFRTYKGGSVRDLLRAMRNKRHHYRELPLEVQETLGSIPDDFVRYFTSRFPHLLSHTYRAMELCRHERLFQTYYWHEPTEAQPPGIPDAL
structure (smiles),measurement,setting,value
"O=S(=O)(/N=C/c1c(O)ccc2ccccc12)c1cccs1 [STF-083010, N-[(2-Hydroxy-1-naphthyl)methylene]-2-thiophenesulfonamide]",spliced-to-unspliced XBP1 ratio,IRE1α endonuclease,reduced
same,collagen synthesis induced by TGF-β1 combined with AA2P,"VSMCs; 72 h, co-treatment, FIG. 2B",inhibited
same,collagen synthesis induced by Ang II,"VSMCs; Ang II (1 μM) 72 h, FIG. 2D",inhibition
same,"elevated expression levels of ER stress markers GRP78, GRP94 and PDI","GRP78, GRP94 and PDI",reduced
